From ChEMBL document CHEMBL5096200, “A short survey of dengue protease inhibitor development in the past 6 years (2015-2020) with an emphasis on similarities between DENV and SARS-CoV-2 proteases” (Bioorg Med Chem, 2021) come the findings set out here.

In brackets after ≈: the same amount, converted by molar mass.

Data set [1] concerns dengue virus type 2. In words: Antiviral activity against DENV2. Type of data set: functional, organism-based.
A short description of data set [2]: Permeability of the compound at pH 7.4. Particulars: PAMPA, read-out: permeability. Type of data set: ADME. (In general: PAMPA measures passive passage across an artificial lipid membrane.)
Data set [3] can be described thus: Antiviral activity against DENV2 infected in human Huh-7 cells assessed as log reduction of viral titre measured at 1 uM measured after 72 hrs. It is filed as functional, dengue virus type 2.
Data set [4] can be described thus: Antiviral activity against DENV2 infected in human K562 cells assessed as log reduction of viral titre measured at 1 uM measured after 72 hrs. Type of data set: functional, dengue virus type 2.
Data set [5] deals with dengue virus type 2. As to the kind of experiment: Antiviral activity against DENV2 infected in human Huh-7 cells assessed as inhibition of viral replication measured after 72 hrs post infection by qRT-PCR analysis. It is filed as functional, organism-based. Particulars: Huh-7, 72 h. For orientation: In qPCR the cycle at which signal appears reflects the starting amount.
The subject of data set [6] is dengue virus type 1. In words: Antiviral activity against DENV1 infected in human Huh-7 cells assessed as inhibition of viral replication measured after 72 hrs post infection by qRT-PCR analysis. Particulars: Huh-7, 72 h. It is filed as functional, organism-based.
For data set [7], the system named is dengue virus type 3. In words: Antiviral activity against DENV3 infected in human Huh-7 cells assessed as inhibition of viral replication measured after 72 hrs post infection by qRT-PCR analysis. It is filed as functional, organism-based. Particulars: Huh-7, 72 h.
Data set [8] concerns dengue virus type 4. As to the kind of experiment: Antiviral activity against DENV4 infected in human Huh-7 cells assessed as inhibition of viral replication measured after 72 hrs post infection by qRT-PCR analysis. It is filed as functional, organism-based. The note with it: Huh-7, 72 h.
For data set [9], the system named is dengue virus type 2. As to the kind of experiment: Antiviral activity against DENV2 assessed as inhibition of viral replication. It is filed as functional, organism-based.
The target in data set [10] is T1, Genome polyprotein (dengue virus type 2, UniProt P29990). As to the kind of experiment: Inhibition of DENV2 NS2B-NS3 protease using Boc-Gly-Arg-Arg-MCA as substrate by fluorescence assay.
A short description of data set [11]: Inhibition of DENV2 protease infected in human HeLa cells. Type of data set: cell-based, dengue virus type 2. Particulars: Dengue virus.
Data set [12] has as its target T1, Genome polyprotein. As to the kind of experiment: Inhibition of DENV2 NS2B-NS3 protease using fluorophore-tagged Bz-nKRR-AMC as substrate preincubated for 30 mins followed by substrate addition measured after 90 mins by microplate reader analysis.
A short description of data set [13]: Antiviral activity against DENV2 infected in BHK-21 cells assessed as inhibition of viral replication. It is filed as functional, cell-based, dengue virus type 2. Particulars: Dengue virus.
Data set [14] is described as follows: Cytotoxicty against BHK-21 cells assessed as reduction in cell viability. It is filed as toxicity, cell-based. Particulars: Mesocricetus auratus (golden hamster).
The target of data set [15] is T1, Genome polyprotein. As to the kind of experiment: Inhibition of DENV NS2B/NS3 pro.
Data set [16] relates to Dengue virus. As to the kind of experiment: Antiviral activity against Dengue virus assessed as reduction in viral titer at 50 uM preincubated for 1 hr measured after 24 hrs post infection by plaque assay relative to control. Type of data set: functional. Set-up: scale not given: the % may be the effect or the level left. Particulars: time 25 hrs.
The target in data set [17] is T1, Genome polyprotein. In words: Inhibition of DENV-2 NS2bNS3 pro.
Data set [18] deals with dengue virus type 1. In words: Antiviral activity against Dengue virus 1 infected in african green monkey Vero cells assessed as reduction in viral titer preincubated for 1 hour with cells followed by viral infection and measured upto 7 days by plague assay relative to control. Type of data set: functional. The note with it: time <= 7 day.
A short description of data set [19]: Antiviral activity against Dengue virus 2 infected in african green monkey Vero cells assessed as reduction in viral titer preincubated for 1 hour with cells followed by viral infection and measured upto 7 days by plague assay relative to control. Type of data set: functional, dengue virus type 2. Particulars: time <= 7 day.
A short description of data set [20]: Antiviral activity against Dengue virus 3 infected in african green monkey Vero cells assessed as reduction in viral titer preincubated for 1 hour with cells followed by viral infection and measured upto 7 days by plague assay relative to control. Type of data set: functional, dengue virus type 3. The note with it: time <= 7 day.
Data set [21] in a line: Antiviral activity against Dengue virus 4 infected in african green monkey Vero cells assessed as reduction in viral titer preincubated for 1 hour with cells followed by viral infection and measured upto 7 days by plague assay relative to control. Type of data set: functional, dengue virus type 4. The note with it: time <= 7 day.
For data set [22], the target named is T1, Genome polyprotein. As to the kind of experiment: Inhibition of DENV-2 NS2B/NS3 protease expressed in Escherichia coli XL1 using Boc-GRR-MCA as substrate preincubated for 10 mins followed by substrate addition and measured after 60 mins.
Data set [23] is described as follows: Antiviral activity against DENV2 infected in human HepG2 cells measured after 48 hrs by plaque assay. It is filed as functional, cell-based, dengue virus type 2. Particulars: Dengue virus, HepG2, 48 h.
Data set [24] is described as follows: Antiviral activity against DENV2 infected in african green monkey Vero cells assessed as reduction of viral titre by viral plaque reduction assay. Particulars: Dengue virus. Type of data set: functional, cell-based, dengue virus type 2. (Plaque reduction counts the foci of infection that form in a cell layer.)
Data set [25] can be described thus: Inhibition of West Nile Virus NS2B (residues 1393 to 1440 )/NS3pro (residues 1476 to 1687) protease expressed in Escherichia coli BL21 (DE3) using e Pyr- RTKR-AMC as substrate preincubated for 30 mins followed by substrate addition and incubated for 90 mins by fluorescence spectrophotometry assay.
A short description of data set [26]: Antiviral activity against DENV-2 NGC infected in african green monkey Vero B cells assessed as reduction in virus induced cytopathic effect. Type of data set: functional, cell-based, dengue virus type 2. The note with it: Dengue virus.
Data set [27] relates to dengue virus type 2. In words: Antiviral activity against DENV2 infected in human Huh-7 cells using Boc-GRR-AMC as substrate incubated for 30 mins by fluorescence spectroscopy assay. The note with it: Huh-7, 0.5 h. It is filed as functional, organism-based.
The target in data set [28] is T1, Genome polyprotein. As to the kind of experiment: Inhibition of DENV NS2B/NS3 protease transfected in human Huh-7 cells using 7-amino-4-methylcoumarin (AMC) fluorophore-linked peptide substrate Boc-GRR-AMC as substrate by fluoroscence based assay. It is filed as cell-based.
The test system of data set [29] is dengue virus type 2. In words: Antiviral activity against DENV-2 infected in human Huh-7 cells assessed as reduction in viral RNA treated for 3 days by qRT-PCR analysis. Particulars: Huh-7, 72 h. Type of data set: functional, organism-based.
Data set [30] in a line: Inhibition of DENV2 pro infected in human Huh-7 cells using 7-amino-4-methylcoumarin (AMC) fluorophore-linked Boc-GRR-AMC as substrate incubated for 30 mins. Particulars: Dengue virus, Huh-7, 0.5 h. It is filed as cell-based, dengue virus type 2.
The test system of data set [31] is dengue virus type 2. As to the kind of experiment: Antiviral activity against DENV2 (TR1751) infected in BHK-21 cells assessed as reduction in virus titre at 100 uM by focus forming assay relative to control. Set-up: scale not given: the % may be the effect or the level left. Type of data set: functional.
The subject of data set [32] is dengue virus type 2. In words: Antiviral activity against DENV2 (TR1751) infected in BHK-21 cells assessed as reduction in virus titre at 1000 uM by focus forming assay relative to control. Type of data set: functional. Set-up: scale not given: the % may be the effect or the level left.

T1 sequence (P29990 1346-1475 limits assumed): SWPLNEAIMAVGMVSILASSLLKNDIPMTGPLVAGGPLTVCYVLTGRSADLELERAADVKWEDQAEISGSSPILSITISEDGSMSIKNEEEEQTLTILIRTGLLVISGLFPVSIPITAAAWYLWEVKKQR
T1 sequence (P29990 1476-2093 limits assumed): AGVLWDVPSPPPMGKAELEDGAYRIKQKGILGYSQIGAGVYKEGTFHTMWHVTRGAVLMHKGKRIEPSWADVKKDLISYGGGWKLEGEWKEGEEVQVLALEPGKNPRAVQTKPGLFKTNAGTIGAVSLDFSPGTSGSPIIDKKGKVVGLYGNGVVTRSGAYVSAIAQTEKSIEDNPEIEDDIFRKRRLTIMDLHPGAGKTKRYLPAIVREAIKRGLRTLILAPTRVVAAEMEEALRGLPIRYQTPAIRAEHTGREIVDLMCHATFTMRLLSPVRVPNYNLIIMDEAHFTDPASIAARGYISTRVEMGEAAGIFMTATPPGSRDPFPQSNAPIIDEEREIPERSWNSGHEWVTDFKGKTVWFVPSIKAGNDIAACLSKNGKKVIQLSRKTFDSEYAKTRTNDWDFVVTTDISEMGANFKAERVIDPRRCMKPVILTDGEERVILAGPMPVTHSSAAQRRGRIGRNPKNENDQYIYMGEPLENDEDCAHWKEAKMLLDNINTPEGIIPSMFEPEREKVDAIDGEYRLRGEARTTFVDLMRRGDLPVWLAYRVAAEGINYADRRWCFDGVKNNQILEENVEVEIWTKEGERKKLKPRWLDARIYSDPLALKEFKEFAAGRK

As to `O=C1c2c(O)ccc([N+](=O)[O-])c2C(=O)c2c([N+](=O)[O-])ccc(O)c21`, the response in [1] was half-maximal at 4.2 µM (EC50). Besides, the Papp in data set [2] was 4.45 ×10⁻⁶ cm/s. Further, the “log(activity)” value in [3] and in data set [4] was over 1 PFU/ml throughout.

With `CC(=O)O[C@H]1CC(C)(C)C(=C=C/C(C)=C/C=C/C=C/C=C(C)/C=C2C=C(/C=C/[C@@]34O[C@]3(C)C[C@@H](O)CC4(C)C)C(=O)O/2)[C@](C)(O)C1`, the half-maximal effective concentration (EC50) (in general, the concentration giving half of the maximal effect) is 4.5 µM in [5]; 5.84 µM in [6]; 5.84 µM in [7]; 5.84 µM in [8]; 4.5 µM in data set [9].

As to `CCCCC1C(C(=O)N(C)OC)C(c2ccccc2)CCN1C(=O)OC(C)(C)C` (centres undefined), the IC50 – broadly, the concentration that inhibits the measured activity by half – in data set [10] turned out to be 257 µM.

In the case of `CCCCCC(=O)N[C@H](C(=O)NCc1ccc(NC(=N)N)cc1)c1ccc(OCc2ccccc2)cc1`, the EC50 in data set [11] was determined as 0.49 µM.

As for `COc1ccc(S(=O)(=O)n2nc(Oc3ccc(-c4ccccc4)cc3)cc2N)cc1`, the IC50 in [12] was 2.9 µM.

Turning to `Cc1cc(O)c(S(=O)(=O)O)cc1Cc1cc(S(=O)(=O)O)c(O)c(Cc2cc(S(=O)(=O)O)c(O)cc2C)c1C`, the figures for the IC50 in [13], in data set [14] and in data set [15] were 4.99 µg/mL (≈ 8.48 µM), 459 µg/mL (≈ 781 µM) and 0.815 µM, respectively.

For `C[C@@H](CC[C@H](O)[C@](C)(O)CO)[C@@H]1CC[C@]2(C)C3=CC[C@@H]4C(C)(C)C(=O)CC[C@@]4(C)C3=CC[C@@]12C`, the Activity in data set [16] was 40%.

In the case of `N#C/C(=C/c1ccc(-c2ccc(C(=O)O)cc2)s1)c1nc2cc(Cl)ccc2[nH]1`, in data set [17], the IC50 amounted to 5.95 µM. Also, the “inhibition (INH)” value in data set [18] amounted to 50%; in data set [19], 83%; in [20], 75%; in data set [21], 73%.

For `CCCCC(=O)Nc1nc(SC(=O)CCCC)c2nc[nH]c2n1`, the half-maximal inhibitory concentration (IC50) in data set [22] is 0.38 µM.

In the case of `CCCCC1C(C(=O)OCC)C(c2ccccc2)CCN1C(=O)OC(C)(C)C` (centres undefined), inhibition in data set [10] was half-maximal at 214 µM (IC50). The same molecule yielded an EC50 in data set [23] of 3.2 µM.

With `O=C(O)c1ccccc1-c1c2cc(I)c(=O)c(I)c-2oc2c(I)c(O)c(I)cc12`, the EC50 in [24] was determined as 1.2 µM.

`COc1ccc(S(=O)(=O)n2nc(OC(=O)c3ccccc3)cc2N)cc1` yielded an IC50 in data set [25] of 0.105 µM.

As to `Cc1c(O)cccc1C(=O)N[C@@H](CSc1ccccc1)[C@H](O)CN1C[C@H]2CCCC[C@H]2C[C@H]1C(=O)NC(C)(C)C`, in [26], the concentration giving a half-maximal response (EC50) was found to be 3.5 µM.

Turning to `COC(=O)c1[nH]c2ccc(Cl)cc2c1C(=O)c1cc(OC)c(OC)c(OC)c1`, the EC50 in data set [27] is 4.6 µM; in data set [28], 4.7 µM; in [29], 4.6 µM; in data set [9], 4.6 µM; in [30] it was 6.7 µM.

Regarding `Oc1cc(O)c2c(c1)O[C@H](c1ccc(O)c(O)c1)[C@H](O)C2` [(-)-EPICATECHIN], the Activity in data set [31] is given as 77.7%; in data set [32], 66.2%.
